Assay results reported in patent US20230374087A1, “METHOD TO IMPROVE PROTEIN QUALITY CONTROL” (The Johns Hopkins University, priority 2020, published 2023).

Tests used:
[1] = test system: neonatal rat cardiomyocytes (NRCMs); experiment: LDH/MTT cytotoxicity assay after simulated ischemia (SI); conditions: for SI-induced cytotoxicity (LDH/MTT ratio): sildenafil 1 μM
Experimental: After overnight culture, subsets of NRCMs were infected with adenovirus (AdV) containing a FLAG-tagged PDE5, FLAG control, Myc-tagged CHIP WT or K31A (provided by Dr. Cam Patterson), S20E or S20A (Welgen Inc., Worcester, MA). Forty-eight hours after infection, cells were exposed to either simulated ischemia (SI) or normal conditions. SI involved incubating cells in DMEM containing deoxyglucose (20 mM), NaCl (125 mM), KCl (8 mM), KH2PO4 (1.2 mM), MgSO4 (1.25 mM), CaCl2) (1.2 mM), NaHCO3(6.25 mM), sodium lactate (5 mM), and HEPES (20 mM) with a pH of 6.6. Cells were then placed in an incubator chamber (Billups-Rothenberg) with 95% nitrogen, 4% carbon dioxide, and 1% oxygen. Normoxic controls were incubated in DMEM supplemented with 10% FBS in air composed of 95% carbon dioxide and 5% oxygen. RNA or protein was harvested after 48 hours of SI. Cells were also treated with sildenafil (1 μM) or vehicle, or small interference RNA (siRNA, 100 pM) specific for rat Stub1 (Qiagen, Cat. #: SI01532251) or scrambled control provided 24 hours after plating and transfected with Xfect (Takara) per manufacturer protocol.
Lactate dehydrogenase (LDH) leakage and (3-[4,5-dimethylthiazol-2-yl]-2,5-diphenyltetrazolium bromide) (MTT) were assessed in cultured cardiomyocytes and media after SI from the same culture dish. LDH was assayed by commercial assay (Roche) following manufacturer's protocol, read in 96 well microplates on a Spectramax M5 (Molecular Devices) at 490 nm absorbance. For MTT, cells were washed in phosphate-buffered saline, MTT (Sigma-Aldrich) working solution added to the culture dish, incubated at 37° C., solubilized with acidic isopropanol, transferred to a 96 well plate, and read at 570 nm with background subtraction at 650 nm on a Spectramax M5.

[2] = test system: proteasome; experiment: Proteasome activity assay in NRCMs; assay type: cell-based, rat; conditions: control cells and cells subjected to SI
Experimental: Proteasome peptidase activity assays were performed as described (22) with slight modification.

[3] = test system: CHIP pS20; experiment: Immunoblot for phospho-S20 CHIP in myocytes; assay type: cell-based, rat; conditions: cardiomyocytes; cGMP or SIL; DT3 1 μM
Experimental: Tissue and cultured cardiomyocytes were lysed in 1× lysis buffer (Cell Signaling Technology), protein concentration was measured by bicinchoninic acid assay (Pierce), and extracts were subjected to SDS-PAGE using Novex Tris-Glycine Gels (4-20% gradient gel, Life Technologies) or Mini-protean TGX Gels (4-20% gradient gel, Bio-Rad), transferred to nitrocellulose membranes, and probed with various primary antibodies (CHIP (#2080S), Hsc70 (#8444S), p-CHIP S20 (Custom antibody, AbMart Inc., Shanghai, China; Project: 25011-1), Myc (#2276S), GAPDH (#2118S), and α-tubulin (#3878S) (Cell Signaling) and ubiquitin antibody (#SAB4503053) from Sigma), and fluorescence-labeled secondary antibodies (Licor, #926-32211, 926-32210, 926-68023, or 926-68022). Gels were imaged (Odyssey, Licor) and band intensity quantified (Odyssey Software 3.1).
Human CHIP peptide fragments containing amino acid residues 13-30 were incubated with cGMP/PKG and assayed by MS. […] Phosphorylation was also observed at neighboring S24 and S26, but only when a S20A CHIP mutant was used (FIG. 2D). This indicates the primary target for PKG on CHIP is at S20. A monoclonal phospho-antibody generated against the S20 site in CHIP was tested in vitro with recombinant PKG1α and CHIP, verifying a consistent phospho-S20-CHIP signal. Use of a CHIP-S20A mutant CHIP confirmed specificity (FIG. 2E).

Compound: CCCc1nn(C)c2c(=O)[nH]c(-c3cc(S(=O)(=O)N4CCN(C)CC4)ccc3OCC)nc12 [SIL, sildenafil]
- SI-induced cytotoxicity (LDH/MTT ratio) ([1]; NRCMs expressing CHIP (scrambled siRNA)): reduced SI-induced cytotoxicity
- cytotoxicity with SIL across CHIP forms ([1]; NRCMs expressing WT, S20E or S20A CHIP, control and SI conditions): lowered cytotoxicity regardless of which CHIP protein was expressed
- SI-induced cytotoxicity (LDH/MTT ratio) ([1]; NRCMs lacking CHIP (CHIP-siRNA)): this protective effect was lost
- proteasome activity [2]: augmented
- CHIP pS20 level [3]: CHIP pS20 increased
